Laboratory results: ChEMBL document CHEMBL1201862, “PubChem BioAssay data set” (2004)
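Results reflect a 48-hour exposure of cells in 96-well plates to compound at five concentrations. Here, GI50 denotes the concentration required for 50% inhibition of growth.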 The source made the active and inactive calls. Rule as the data show it: active = GI50 up to about 1.1 µM and inactive = higher.

What was measured:
Assay in all cases: NCI-60 cell line screen, 48 h
SF-268 = system: SF-268
HCT-15 = system: HCT-15
SK-MEL-2 = system: SK-MEL-2
MOLT-4 = system: MOLT-4
SK-MEL-28 = system: SK-MEL-28
NCI-H226 = system: NCI-H226
A498 = system: A498
SNB-19 = system: SNB-19
SK-OV-3 = system: SK-OV-3
Malme-3M = system: Malme-3M
786-0 = system: 786-0
EKVX = system: EKVX
SK-MEL-5 = system: SK-MEL-5
U-251 = system: U-251
SN12C = system: SN12C
A549 = system: A549
HCC 2998 = system: HCC 2998

Row | SMILES | GI50 (SF-268) | GI50 (HCT-15) | GI50 (SK-MEL-2) | GI50 (MOLT-4) | GI50 (SK-MEL-28) | GI50 (NCI-H226) | GI50 (A498) | GI50 (SNB-19) | GI50 (SK-OV-3) | GI50 (Malme-3M) | GI50 (786-0) | GI50 (EKVX) | GI50 (SK-MEL-5) | GI50 (U-251) | GI50 (SN12C) | GI50 (A549) | GI50 (HCC 2998)
1 | N#Cc1c2c(c(N=[N+]=[N-])n3c1nc1ccccc13)CCCC2 | 3.49 µM (inactive) | 2.07 µM | 1.73 µM (inactive) | 1.62 µM (inactive) | 4.12 µM (inactive) | 1.73 µM (inactive) | 2.65 µM (inactive) | 2.55 µM (inactive) | 1.8 µM (inactive) | 2.4 µM (inactive) | 1.9 µM (inactive) | 16.9 µM (inactive) | 18.3 µM (inactive) | 3.39 µM (inactive) | 2.14 µM (inactive) | 4.67 µM (inactive) | 12.6 µM (inactive)
2 | CC(C)C/C(CC(=O)CCC(=O)Nc1ccccc1[N+](=O)[O-])=N\NC(=O)c1cc2ccccc2cc1O | 38 µM (inactive) | 31.6 µM | – | 20.2 µM (inactive) | > 100 µM (inactive) | 19.3 µM (inactive) | 0.0357 µM (active) | 45.5 µM (inactive) | 79.6 µM (inactive) | 42.6 µM (inactive) | 36.8 µM (inactive) | 34 µM (inactive) | 28.1 µM (inactive) | 39.2 µM (inactive) | 50.6 µM (inactive) | > 100 µM (inactive) | 36.6 µM (inactive)
3 | O=C(COC(=O)c1cccc2c(=O)c3ccccc3[nH]c12)Nc1ccccc1 | > 100 µM (inactive) | – | – | 17.1 µM (inactive) | 43.5 µM (inactive) | 33.3 µM (inactive) | 67.8 µM (inactive) | > 100 µM (inactive) | > 100 µM (inactive) | 35.9 µM (inactive) | > 100 µM (inactive) | > 100 µM (inactive) | 19.8 µM (inactive) | 71.4 µM (inactive) | > 100 µM (inactive) | 50.8 µM (inactive) | > 100 µM (inactive)
4 | COc1cc(/C=C/c2ccc(OC)c(OC)c2OC)cc(OC)c1OC | 20.1 µM (inactive) | 18.5 µM | 16.9 µM (inactive) | 19.3 µM (inactive) | 15.3 µM (inactive) | 17.6 µM (inactive) | 22 µM (inactive) | 21.3 µM (inactive) | 24.7 µM (inactive) | 20.2 µM (inactive) | 21.8 µM (inactive) | 21.5 µM (inactive) | 14.7 µM (inactive) | 16.8 µM (inactive) | 21.4 µM (inactive) | 27.2 µM (inactive) | 13.2 µM (inactive)
5 | COC(=O)c1cc2c(c(C(=O)OC)c1O)C(=O)C=CC2=O | > 40.6 µM (inactive) | 21.6 µM | > 9.1 µM (inactive) | – | > 39.9 µM (inactive) | > 9.1 µM (inactive) | > 41.1 µM (inactive) | > 42.7 µM (inactive) | > 89.5 µM (inactive) | > 40.8 µM (inactive) | 35.7 µM (inactive) | > 21.2 µM (inactive) | 37.2 µM (inactive) | 40.7 µM (inactive) | > 42.1 µM (inactive) | > 42.8 µM (inactive) | > 43.1 µM (inactive)
6 | CCOC(=O)/C(=C\c1ccc(N(CCC#N)CCC#N)cc1)NC(=O)c1cc([N+](=O)[O-])ccc1Cl | > 100 µM (inactive) | > 100 µM | > 100 µM (inactive) | 72.6 µM (inactive) | > 100 µM (inactive) | > 100 µM (inactive) | > 100 µM (inactive) | > 100 µM (inactive) | > 100 µM (inactive) | > 100 µM (inactive) | > 100 µM (inactive) | > 100 µM (inactive) | > 100 µM (inactive) | > 100 µM (inactive) | > 100 µM (inactive) | > 100 µM (inactive) | > 100 µM (inactive)
7 | COc1ccc(C2CC(c3cc(C)ccc3O)=NC(N)=N2)cc1 (stereo not drawn) | > 100 µM (inactive) | > 100 µM | – | > 100 µM (inactive) | > 100 µM (inactive) | > 100 µM (inactive) | > 100 µM (inactive) | > 100 µM (inactive) | > 100 µM (inactive) | > 100 µM (inactive) | > 100 µM (inactive) | > 100 µM (inactive) | – | > 100 µM (inactive) | > 100 µM (inactive) | > 100 µM (inactive) | > 100 µM (inactive)
